IC50 data for 15 molecules are collected here from patent publication US7109193B2, “Tricyclic diazepines tocolytic oxytocin receptor antagonists” (Wyeth, priority 2001, dated 2006).

A word on the IC50: it is the point on the concentration scale where inhibition reaches its midpoint.

For this test, the target named is T1, human vasopressin V2 receptor subtype (Homo sapiens, UniProt P30518).
T1 construct: host or cells: CHO cells (pZeoSV vector)
As to the kind of experiment: Vasopressin binding in Chinese Hamster Ovary cell membranes expressing human vasopressin V2 subtype receptors. The note with it: CHO cell membranes, [3H]arginine vasopressin, values in parentheses. In short, it runs like this:
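Radioligand displacement on membranes from CHO cells stably expressing human V2 receptor, 25 to 50 μg protein/well, in 50 mM Tris-HCl pH 7.4 with MgCl2, BSA and protease inhibitors. [^3H]arginine vasopressin (8 nM working solution) incubated 60 min at room temperature; bound label measured by filtration and scintillation counting.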

Structures are written as SMILES.

T1 sequence (P30518 whole entry): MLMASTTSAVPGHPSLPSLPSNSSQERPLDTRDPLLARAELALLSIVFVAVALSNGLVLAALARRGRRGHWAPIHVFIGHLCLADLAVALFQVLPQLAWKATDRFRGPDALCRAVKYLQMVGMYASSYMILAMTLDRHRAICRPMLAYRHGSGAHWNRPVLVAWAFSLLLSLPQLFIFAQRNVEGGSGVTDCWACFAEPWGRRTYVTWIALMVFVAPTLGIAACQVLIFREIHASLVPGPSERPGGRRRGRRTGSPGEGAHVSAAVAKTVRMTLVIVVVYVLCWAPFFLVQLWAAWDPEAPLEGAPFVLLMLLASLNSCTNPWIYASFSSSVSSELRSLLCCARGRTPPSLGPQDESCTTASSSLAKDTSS

As to `Cc1cc(C(=O)N2Cc3ccc(C(=O)N4CCN(CCN(C)C)CC4)n3Cc3ccccc32)ccc1-c1ccccc1C(F)(F)F` [Example 196, {4-[2-(Dimethylamino)ethyl]-1-piperazinyl}(10-{[2-methyl-2′-(trifluoromethyl)[1,1′-biphenyl]-4-yl]carbonyl}-10,11-dihydro-5H-pyrrolo[2,1-c][1,4]benzodiazepin-3-yl)methanone], the IC50 amounted to 855 nM.

In the case of `COc1cc(-c2ccccc2C)c(Cl)cc1C(=O)N1Cc2ccc(C(=O)N3CCN(CCN(C)C)CC3)n2Cc2ccccc21` [Example 197, {10-[(6-Chloro-3-methoxy-2′-methyl[1,1′-biphenyl]-4-yl)carbonyl]-10,11-dihydro-5H-pyrrolo[2,1-c][1,4]benzodiazepin-3-yl}{4-[2-(dimethylamino)ethyl]-1-piperazinyl}methanone], the IC50 is 497 nM.

On to `COc1ccccc1-c1ccc(C(=O)N2Cc3ccc(C(=O)N4CCN(CCN5CCOCC5)CC4)n3Cc3ccccc32)cc1C` [Example 206, {10-[(2′-Methoxy-2-methyl[1,1′-biphenyl]-4-yl)carbonyl]-10,11-dihydro-5H-pyrrolo[2,1-c][1,4]benzodiazepin-3-yl}{4-[2-(4-morpholinyl)ethyl]-1-piperazinyl}methanone], for which the IC50 came to 190 nM.

Turning to `COc1ccccc1-c1ccc(C(=O)N2Cc3ccc(C(=O)N4CCN(CCN5CCOCC5)CC4)n3Cc3ccccc32)cc1` [Example 207, {10-[(2′-Methoxy[1,1′-biphenyl]-4-yl)carbonyl]-10,11-dihydro-5H-pyrrolo[2,1-c][1,4]benzodiazepin-3-yl}{4-[2-(4-morpholinyl)ethyl]-1-piperazinyl}methanone], the IC50 was 601 nM.

As to `C=CCN1CCN(C(=O)c2ccc3n2Cc2ccccc2N(C(=O)c2cc(Cl)c(-c4ccccc4C)cc2OC)C3)CC1` [Example 219, (4-Allyl-1-piperazinyl){10-[(6-chloro-3-methoxy-2′-methyl[1,1′-biphenyl]-4-yl)carbonyl]-10,11-dihydro-5H-pyrrolo[2,1-c][1,4]benzodiazepin-3-yl}methanone], the IC50 worked out at 1320 nM.

As for `C=CCN1CCN(C(=O)c2ccc3n2Cc2ccccc2N(C(=O)c2ccc(-c4ccccc4C)c(C)c2)C3)CC1` [Example 220, (4-Allyl-1-piperazinyl){10-[(2,2′-dimethyl[1,1′-biphenyl]-4-yl)carbonyl]-10,11-dihydro-5H -pyrrolo[2,1-c][1,4]benzodiazepin-3-yl}methanone], the IC50 came out at 1820 nM.

As to `C=CCN1CCN(C(=O)c2ccc3n2Cc2ccccc2N(C(=O)c2ccc(-c4ccccc4OC)cc2)C3)CC1` [Example 221, (4-Allyl-1-piperazinyl){10-[(2′-methoxy[1,1′-biphenyl]4-yl)carbonyl]-10,11-dihydro-5H -pyrrolo[2,1-c][1,4]benzodiazepin-3-yl}methanone], the IC50 stood at 833 nM.

`COc1ccccc1-c1ccc(C(=O)N2Cc3ccc(C(=O)N4CCN(CCCN(C)C)CC4)n3Cc3ccccc32)cc1C` [Example 245, {4-[3-(Dimethylamino)propyl]-1-piperazinyl}{10-[(2′-methoxy-2-methyl[1,1′-biphenyl]-4-yl)carbonyl]-10,11-dihydro-5H-pyrrolo[2,1-c][1,4]benzodiazepin-3-yl}methanone]: the IC50 is 423 nM.

Take `COc1ccccc1-c1ccc(C(=O)N2Cc3ccc(C(=O)N4CCN(CCCN(C)C)CC4)n3Cc3ccccc32)cc1` [Example 246, {4-[3-(Dimethylamino)propyl]-1-piperazinyl}{10-[(2′-methoxy[1,1′-biphenyl]-4-yl)carbonyl]-10,11-dihydro-5H-pyrrolo[2,1-c][1,4]benzodiazepin-3-yl}methanone]: the IC50 amounted to 508 nM.

Consider `Cc1cc(C(=O)N2Cc3ccc(C(=O)N4CCC[C@H]4CN4CCCC4)n3Cc3ccccc32)ccc1-c1ccccc1C(F)(F)F` [Example 258, (10-{[2-Methyl-2′-(trifluoromethyl)[1,1′-biphenyl]-4-yl]carbonyl}-10,11-dihydro-5H-pyrrolo[2,1-c][1,4]benzodiazepin-3-yl)[(2S)-2-(1-pyrrolidinylmethyl)pyrrolidinyl]methanone], for which the IC50 amounted to 5680 nM.

Turning to `COc1cccc(-c2ccc(C(=O)N3Cc4ccc(C(=O)N5CCC[C@H]5CN5CCCC5)n4Cc4ccccc43)cc2C)c1` [Example 263, {10-[(3′-Methoxy-2-methyl[1,1′-biphenyl]-4-yl)carbonyl]-10,11-dihydro-5H-pyrrolo[2,1-c][1,4]benzodiazepin-3-yl}[(2S)-2-(1-pyrrolidinylmethyl)pyrrolidinyl]methanone], the IC50 was found to be 4120 nM.

For the molecule `Cc1cc(C(=O)N2Cc3ccc(C(=O)N4CC[C@@H](N(C)C)C4)n3Cc3ccccc32)ccc1-c1ccccc1C(F)(F)F` [Example 271, [(3R)-3-(Dimethylamino)pyrrolidinyl](10-{[2-methyl-2′-(trifluoromethyl)[1,1′-biphenyl]-4-yl]carbonyl}-10,11-dihydro-5H-pyrrolo[2,1-c][1,4]benzodiazepin-3-yl)methanone], the IC50 was 1920 nM.

Consider `COc1ccccc1-c1ccc(C(=O)N2Cc3ccc(C(=O)N4CC[C@@H](N(C)C)C4)n3Cc3ccccc32)cc1C` [Example 272, [(3R)-3-(Dimethylamino)pyrrolidinyl]{10-[(2′-methoxy-2-methyl[1,1′-biphenyl]-4-yl)carbonyl]-10,11-dihydro-5H-pyrrolo[2,1-c][1,4]benzodiazepin-3-yl}methanone], for which the IC50 came to 1300 nM.

Regarding `COc1cc(-c2ccccc2C)c(Cl)cc1C(=O)N1Cc2ccc(C(=O)N3CC[C@@H](N(C)C)C3)n2Cc2ccccc21` [Example 273, {10-[(6-Chloro-3-methoxy-2′-methyl[1,1′-biphenyl]-4-yl)carbonyl]-10,11-dihydro-5H-pyrrolo[2,1-c][1,4]benzodiazepin-3-yl}[(3R)-3-(dimethylamino)pyrrolidinyl]methanone], the IC50 was 812 nM.

For `COc1cccc(-c2ccc(C(=O)N3Cc4ccc(C(=O)N5CC[C@@H](N(C)C)C5)n4Cc4ccccc43)cc2C)c1` [Example 278, [(3R)-3-(Dimethylamino)pyrrolidinyl]{10-[(3′-methoxy-2-methyl[1,1′-biphenyl]-4-yl)carbonyl]-10,11-dihydro-5H-pyrrolo[2,1-c][1,4]benzodiazepin-3-yl}methanone], the IC50 came to 1680 nM.
